Laboratory results published in ChEMBL document CHEMBL4602643, “Anti-inflammatory activities of isopimara-8(14),-15-diene diterpenoids and mode of action of kaempulchraols P and Q from Kaempferia pulchra rhizomes” (Bioorg Med Chem Lett, 2020).
The source made the active and inactive calls. The rule behind the calls is not given here.

Experiments:
RAW264.7 [1] = assay: Anti-inflammatory activity in mouse RAW264.7 cells assessed as inhibition of LPS-induced NO production; format: functional, cell-based
RAW264.7 [2] = assay: Anti-inflammatory activity in mouse RAW264.7 cells assessed as inhibition of LPS-induced NO production at 5 uM relative to control; format: functional
[3] = Cytotoxicity against mouse RAW264.7 cells assessed as cell survival at 100 uM; format: cell-based; details: read-out: Activity
RAW264.7 [4] = assay: Anti-inflammatory activity in mouse RAW264.7 cells assessed as inhibition of LPS-induced NO production at 50 uM relative to control; format: functional
RAW264.7 [5] = assay: Cytotoxicity against mouse RAW264.7 cells expressing luciferase reporter gene assessed as cell survival at 5 to 25 uM; format: cell-based; details: raw264.7, 25 µM
RAW264.7 [6] = assay: Anti-inflammatory activity in mouse RAW264.7 cells assessed as inhibition of LPS-induced NO production at 10 uM relative to control; format: functional
RAW264.7 [7] = assay: Anti-inflammatory activity in mouse RAW264.7 cells assessed as inhibition of LPS-induced NO production at 100 uM relative to control; format: functional
RAW264.7 [8] = assay: Inhibition of LPS-induced IL-6 production in mouse RAW264.7 cells at 25 uM by ELISA; format: functional, cell-based
[9] = Cytotoxicity against mouse RAW264.7 cells assessed as cell survival at 5 uM; format: cell-based; details: read-out: Activity
RAW264.7 [10] = assay: Antiinflammatory activity in mouse RAW264.7 cells assessed as inhibition of LPS-induced COX2 expression at 25 uM incubated for 24 hrs by Western blot analysis; format: functional, cell-based
RAW264.7 [11] = assay: Inhibition of NF-kappaB activation in mouse RAW264.7 cells expressing luciferase gene at 5 to 25 uM by luciferase reporter gene assay; format: cell-based
[12] = Cytotoxicity against mouse RAW264.7 cells assessed as cell survival at 10 uM; format: cell-based; details: read-out: Activity
RAW264.7 [13] = assay: Inhibition of LPS-induced NF-kappaB activation in mouse RAW264.7 cells expressing luciferase gene at 5 to 25 uM by luciferase reporter gene assay; format: cell-based
[14] = Cytotoxicity against mouse RAW264.7 cells assessed as cell survival at 50 uM; format: cell-based; details: read-out: Activity

## C=C[C@]1(C)C=C2C[C@@H](O)[C@H]3C(C)(C)CC[C@H](OC(C)=O)[C@]3(C)[C@H]2CC1
RAW264.7 [1]
  IC50: 36.1 µM
RAW264.7 [2]
  inhibition at 5 µM: 15.2%
[3]
  viability at 100 µM: 3.39%
RAW264.7 [4]
  inhibition at 50 µM: 71.6%
RAW264.7 [5]
  Activity: Non-Toxic
RAW264.7 [6]
  inhibition at 10 µM: 9.55%
RAW264.7 [7]
  inhibition at 100 µM: 81.8%
RAW264.7 [8]
  inhibition: Active
[9]
  viability at 5 µM: 106%
RAW264.7 [10]
  inhibition: Active
RAW264.7 [11]
  inhibition: Active
[12]
  viability at 10 µM: 111%
RAW264.7 [13]
  inhibition: Active
[14]
  viability at 50 µM: 60.3%
